Measured values reported in patent US11530181B2, “IL-6 inhibitors and methods of treatment” (University of Florida Research Foundation, Incorporated, priority 2018, dated 2022).

Tests used:
gp130-D1-D3 = target: T1, gp130-D1-D3 (Homo sapiens, UniProt P40189); experiment: SPR direct binding to immobilized gp130-D1-D3 (CM5 chip); conditions: for Kd: SPR, gp130-D1-D3, linear regression at low concentrations, 25% Rmax; for ΔGexp: experimental binding energy from SPR KD
T1 construct: residues 1-301, the numbering system is based on PDB 3L5H, which is the mature form of gp130; tandem TFH purification tag (includes FLAG, as purified on anti-FLAG M2 agarose) (C); made in house; host or cells: Hi5 insect cells (baculovirus; virus generated in sf9)
T1 sequence (P40189 23-323): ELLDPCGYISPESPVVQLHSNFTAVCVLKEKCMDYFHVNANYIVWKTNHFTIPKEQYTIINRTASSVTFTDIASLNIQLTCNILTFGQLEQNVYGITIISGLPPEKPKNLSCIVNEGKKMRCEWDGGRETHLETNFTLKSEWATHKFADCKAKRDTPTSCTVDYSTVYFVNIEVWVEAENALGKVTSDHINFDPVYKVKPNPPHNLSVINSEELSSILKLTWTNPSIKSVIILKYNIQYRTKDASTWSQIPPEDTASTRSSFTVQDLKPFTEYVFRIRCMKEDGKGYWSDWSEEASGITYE

[1] = target: Extracellular Domain of gp130 (Homo sapiens, UniProt P40189); conditions: literature value; read-out: reported binding affinity; cited from earlier work
PE/CA-PJ49 cell line = experiment: Inhibitory activity in PTPRD mutant cell line PE/CA-PJ49; format: cell-based; conditions: PE/CA-PJ49, 48 h
Protocol: (§1) Human breast cancer cell lines MCF7, MDA-MB-231 and SUM159 were maintained in Dulbecco's modified Eagle medium (DMEM). Human pancreatic cancer cell line BxPC-3 was maintained in RPMI 1640 medium. Human pancreatic cancer cell line Capan-1 was maintained in Iscove's Modified Dulbecco's Medium (IMEM). All media were supplemented with 10% FBS and 1% penicillin/streptomycin, and cells were incubated in a humidified 37° C. incubator with 5% CO2. PE/CA-PJ49 cell line was purchased from external sources and maintained according to manufacturer's protocol.
(§2) Cell viability was evaluated by using the MTT assay in triple replicates in one experiment and repeated for three times. Cancer cells were seeded in 96-well plates at a density of 3,000 cells per well. The cells were incubated at 37° C. for a period of 24 hours. Escalating concentrations of IL-6/gp130 inhibitors were added in triplicate to the plates in the presence of 10% FBS. After incubation for 48 or 72 hours, a stock solution of MTT (0.5 mg/ml) was then added to each well containing the treated cells, followed by incubation at 37° C. for 3 h. After removal of medium, the MTT dye was dissolved with spectrophotometric grade DMSO and the absorbance was read at 570 nm. The IC50 value is determined by interpolation based on the absorbance value halfway between positive and negative controls. In the experiment of LLM4 showing higher efficacy in cancer cells with higher levels of IL-6, instead of using medium with 10% FBS, DMEM with 0% FBS was used in order to eliminate the influence of trace amounts of growth factors and cytokines in FBS.
Protein tyrosine […] receptor type D (PTPRD) is reported to serve as a tumor suppressor in various human cancers [Peyser et. al, PLoS One (2015) 10(8)]. PTPRD mutation is also known to be associated with increased STAT3 expression [Peyser et. al, PLoS One (2015) 10(8)]. Table 8 captures the inhibitory activities of various compounds in the PTPRD mutant cell line, PE/CA-PJ49.

[2] = test system: BxPC-3 pancreatic cancer cell line; experiment: MTT cell viability assay, BxPC-3; format: cell-based, human; conditions: for inhibitory effect compared to parent compound LLM4: BxPC-3, 25 μM, 48 hours; for IC50: Homo sapiens, BxPC-3, Table 7
Protocol: as §1, §2

[3] = test system: SUM159 breast cancer cell line; experiment: MTT cell viability assay, SUM159; format: cell-based, human; conditions: for inhibitory effect compared to parent compound LLM4: SUM159, 25 μM, 48 hours
Protocol: as §1
as §2, with “controls.” for “controls. In the experiment of LLM4 showing higher efficacy in cancer cells with higher levels of IL-6, instead of using medium with 10% FBS, DMEM with 0% FBS was used in order to eliminate the influence of trace amounts of growth factors and cytokines in FBS.”

[4] = test system: IL-6 induced STAT3 phosphorylation; experiment: Western blot, IL-6 induced STAT3 phosphorylation in MCF7; format: cell-based, human; conditions: MCF7, 1-4 μM, 5 h, IL-6 50 ng/ml
Protocol: Cells were harvested and lysed in cold radioimmunoprecipitation assay (RIPA) lysis buffer containing proteasome inhibitor cocktail and phosphatase inhibitor cocktail. The protein concentrations were determined using the BCA Protein Assay kit. After adding the loading buffer and boiling at 95° C. for 10 minutes, equivalent amounts of proteins were loaded on and separated by SDS-PAGE, and then were transferred to PVDF membranes. Membranes were probed with primary antibodies (1:1000) against phospho-STAT3 (Tyr705), STAT3, phospho-STAT1 (Tyr701), STAT1, phospho-STAT6 (Tyr 641), STAT6, and GAPDH, respectively, and horseradish peroxidase (HRP)-conjugated secondary antibody (1:10000) (Cell Signaling Technology, Beverly, Mass.). Membranes were analyzed using Enhanced Chemiluminescence Plus reagents and either scanned with the Storm Scanner (Amersham Pharmacia Biotech, Inc., Piscataway, N.J.) or imaged with ChemiDoc MP imaging system (Bio-Rad, Hercules, Calif.). For cytokine induction of STAT3 phosphorylation, MCF-7 breast cancer cells were seeded in 10 cm plates (1 million cells per plate) and allowed to adhere overnight followed by serum-starvation. […] After designated hours, LLM-418 treated and untreated cells were stimulated by IL-6, LIF, and OSM (50 ng/mL). The cells were harvested after 30 minutes and analyzed by Western blot.
MCF7 breast cancer cells were seeded in 10 cm plates (1 million cells per plate) and allowed to adhere overnight. The following day, the cells were serum-starved. The cells were then left untreated or treated with LLM4 (5-20 μM). After designated hours, the LLM4 treated and untreated cells were stimulated by IL-6, LIF, OSM, CNTF, CT-1, IL-11, IL-4 or INF-γ (50 ng/ml). The cells were harvested after 30 minutes and analyzed by western blotting.

[5] = test system: multiple myeloma cell line U266; experiment: Cell viability assay, U266; format: cell-based, human
Protocol: as §2
It was reported in multiple myeloma cell line U266 that IL-6 is also elevated and of great importance for cancer progression [Jernberg W, Pettersson M, Carlsson M, et al. Increase in interleukin 6 (IL-6) and IL-6 receptor expression in a human multiple myeloma cell line, U-266, during long-term in vitro culture and the development of a possible autocrine IL-6 loop 1. Leukemia. 1992, 4, 310-318]. These novel IL-6/gp130 inhibitors were tested in U266 cells at a concentration of 25 μM for an incubation time of 48 and 72 hours. MDL16 and LLM4 were used as control compounds.

[6] = test system: MDA-MB-231 breast cancer cell line; experiment: MTT cell viability assay, MDA-MB-231; format: cell-based, human; conditions: MDA-MB-231 (medium IL-6), 48 h, 0% FBS medium
Protocol: as §1
as §2, with “Escalating concentrations of IL-6/gp130 inhibitors were added in triplicate to the plates in the presence of 10% FBS.” left out, “In the experiment of LLM4 showing higher efficacy in cancer cells with higher levels of IL-6, instead of using medium with 10% FBS, DMEM with 0% FBS was used in order to eliminate the influence of trace amounts of growth factors and cytokines in FBS.” left out

[7] = test system: SUM159 breast cancer cell line; experiment: MTT cell viability assay, SUM159; format: cell-based, human; conditions: SUM159 (high IL-6), 48 h, 0% FBS medium
[8] = test system: MCF7 breast cancer cell line; experiment: MTT cell viability assay, MCF7; format: cell-based, human; conditions: MCF7 (low IL-6), 48 h, 0% FBS medium
Protocol: as §1
as §2, with “Escalating concentrations of IL-6/gp130 inhibitors were added in triplicate to the plates in the presence of 10% FBS.” left out, “In the experiment of LLM4 showing higher efficacy in cancer cells with higher levels of IL-6, instead of using medium with 10% FBS, DMEM with 0% FBS was used in order to eliminate the influence of trace amounts of growth factors and cytokines in FBS.” left out

[9] = SUM159 human breast cancer cell line, MTT

Extracellular Domain of gp130, sequence (P40189 23-619 limits assumed): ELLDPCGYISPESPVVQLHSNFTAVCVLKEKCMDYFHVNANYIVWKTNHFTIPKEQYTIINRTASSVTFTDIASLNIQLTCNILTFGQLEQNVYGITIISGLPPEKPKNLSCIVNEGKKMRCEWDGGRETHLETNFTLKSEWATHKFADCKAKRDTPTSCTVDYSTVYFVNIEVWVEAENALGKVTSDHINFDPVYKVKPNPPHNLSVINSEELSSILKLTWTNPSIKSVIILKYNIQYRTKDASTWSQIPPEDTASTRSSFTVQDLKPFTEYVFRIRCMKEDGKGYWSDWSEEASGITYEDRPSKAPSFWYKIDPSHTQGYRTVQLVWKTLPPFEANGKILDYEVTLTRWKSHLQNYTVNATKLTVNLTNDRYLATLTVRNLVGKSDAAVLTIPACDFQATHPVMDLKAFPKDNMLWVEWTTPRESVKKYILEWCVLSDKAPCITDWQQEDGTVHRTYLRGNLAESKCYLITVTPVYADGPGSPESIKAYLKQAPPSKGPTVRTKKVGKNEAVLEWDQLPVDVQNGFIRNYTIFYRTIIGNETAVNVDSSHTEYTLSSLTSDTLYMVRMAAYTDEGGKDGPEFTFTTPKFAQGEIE

For `CCCCC1=C(C)C(=O)[C@](C)(CN2c3ccccc3[C@]3(O)CCOC23)C1=O` (stereo partly drawn) [MDL-A, Madindoline A, reference compound], the Kd (gp130-D1-D3) is listed as 330 µM, the ΔGexp (gp130-D1-D3) is listed as -4.75 kcal/mol and the Kd [1] is listed as 288 µM.
`CN(C)C(=O)Oc1cccc2c1C(=O)c1cccc(S(N)(=O)=O)c1C2=O` [LLL12B] showed an IC50 (PE/CA-PJ49 cell line) of 0.0159 ± 0.00371 µM.
For `O=C(Nc1cccc(-c2ccn[nH]2)c1)c1ccc(OCCCN2CCCCC2)cc1` [LLM41, N-(3-(1H-pyrazol-5-yl)phenyl)-4-(3-(piperidin-1-yl)propoxy)benzamide], the Kd (gp130-D1-D3) was 21.6 µM, the ΔGexp (gp130-D1-D3) was -6.36 kcal/mol and the “inhibitory effect compared to parent compound LLM4” value [2] was “comparable or slightly better at inhibition”. The IC50 [2] was 13 µM, the IC50 ([3]; Homo sapiens, SUM159, SUM159, Table 7) was 14 µM and the “inhibitory effect compared to parent compound LLM4” value [3] was “comparable or slightly better at inhibition”. For the same compound, the “inhibition of IL-6 induced STAT3 phosphorylation” value [4] was “inhibited STAT3 phosphorylation stimulated by IL-6 in MCF7 cells in a dose dependent manner”, the IC50 ([5]; Homo sapiens, U-266, U266, 72 h) was 5.4 µM and the “inhibitory effect compared to parent compound LLM4” value ([5]; U266, 25 μM, 48 and 72 hours) was “greater inhibitory effects”.
With `O=C(Nc1cccc(-c2ccn[nH]2)c1)c1cccc(OCCN2CCCCC2)c1` [LLM46, N-(3-(1H-pyrazol-5-yl)phenyl)-3-(2-(piperidin-1-yl)ethoxy)benzamide] the “inhibitory effect compared to parent compound LLM4” value [2] was “comparable or slightly better at inhibition” and the “inhibitory effect compared to parent compound LLM4” value [3] was “comparable or slightly better at inhibition”.
`O=C(NNc1nc2cc(F)ccc2n2cccc12)c1cnccn1` [SC144, reference compound] showed an IC50 (PE/CA-PJ49 cell line) of 0.691 ± 0.064 µM, an IC50 [6] of 1.22 µM and an IC50 [7] of 1.08 µM. It also gave an IC50 [8] of 4.7 µM.
`O=C(Nc1cc(F)ccc1-n1cccc1)c1ccc(OCCN2CCCCC2)cc1` [LLM3, N-(5-fluoro-2-(1H-pyrrol-1-yl)phenyl)-4-(2-(piperidin-1-yl)ethoxy)benzamide] showed an IC50 [3, 9] of 31.4 ± 4.7 µM.
In the case of `O=C(Nc1cc(F)ccc1-n1cccc1)c1ccc(OCCc2ccccc2)cc1` [LLM5, N-(5-fluoro-2-(1H-pyrrol-1-yl)phenyl)-4-phenethoxybenzamide], the IC50 [3, 9] is reported as 64.4 ± 6.9 µM.
With `O=C(Nc1ccccc1-c1ccn[nH]1)c1ccc(OCCCN2CCCCC2)cc1` [LLM417, N-(2-(1H-pyrazol-5-yl)phenyl)-4-(3-(piperidin-1-yl)propoxy)benzamide] the “inhibitory effect compared to parent compound LLM4” value [2] was “comparable or slightly better at inhibition” and the “inhibitory effect compared to parent compound LLM4” value [3] was “comparable or slightly better at inhibition”.
`O=C(Nc1cc(F)ccc1-n1cccc1)c1ccc(OCCCCc2ccccc2)cc1` [LLM7, N-(5-fluoro-2-(1H-pyrrol-1-yl)phenyl)-4-(4-phenylbutoxy)benzamide] gave an IC50 ([3]; Homo sapiens, SUM159, SUM159 human breast cancer cell line, MTT) of 58.7 ± 6.3 µM.
In the case of `NS(=O)(=O)c1cccc2c1C(=O)c1cccc(O)c1C2=O` [LLL12], the IC50 (PE/CA-PJ49 cell line) is reported as 0.019 ± 0.00283 µM.
In the case of `Cc1c(-c2ccc(O)cc2)n(Cc2ccc(OCCN3CCCCCC3)cc2)c2ccc(O)cc12` [Bazedoxifene, reference compound], the IC50 [2] is reported as 1.8 µM and the IC50 ([3]; Homo sapiens, SUM159, Table 7) is reported as 4.6 µM.
